Holding throughout (type): cell-based, rabbit
Data set [1] concerns renal proximal tubular cells. The experiment in a line: Basal oxygen consumption (QO2), a measure of mitochondrial function. The following applies: for repair of basal QO2: day 6 after DCVC injury. The method, then:
(§1) Confluent monolayers of renal proximal tubular cells (day 6 after seeding) were exposed to 200 μM S-(1,2-dichlorovinyl)-L-cysteine (dissolved in water) for 1.75 hours followed by toxicant removal and addition of fresh culture media. This method produces approximately 50% cell death and loss 24 hours after the exposure. On days 1, 4, and 6 following S-(1,2-dichlorovinyl)-L-cysteine exposure, the ability of the remaining renal proximal tubular cells to regenerate and repair physiological function was monitored as described below. In some experiments, immediately after S-(1,2-dichlorovinyl)-L-cysteine exposure and after daily media change through day 6 after injury, collagen I (0, 5, 15, or 50 μg/ml), collagen IV (0, 5, 15, or 50 μg/ml), laminin (50 μg/ml), or cellular fibronectin (50 μg/ml) was added to the culture media of uninjured and S-(1,2-dichlorovinyl)-L-cysteine-injured renal proximal tubular cells grown in physiological concentrations of AscP. Exogenous collagens I and IV used in this study were triple helical and contained only α1 and α2 chains in conformations similar to those found in the renal basement membrane (3, 25). Laminin was a mixture of biologically active laminin chains found in most epithelial tissues (8, 50) and cellular fibronectin was composed of functional dimers (51).
On days 1, 4, and 6 after sublethal S-(1,2-dichlorovinyl)L-cysteine injury, renal proximal tubular cells bathed in 37° C. culture medium were gently detached from culture dishes with a rubber policeman and transferred to a 37° C. oxygen consumption (QO2) chamber. Basal renal proximal tubular cells QO2 was measured polarographically using a Clark-type electrode as described previously (36).

For data set [2], the system named is collagen-binding integrin subunits α1, α2, and β1. The experiment in a line: Subcellular localization of CBIs by confocal microscopy. To be noted: for CBIs on the apical membrane of injured RPTC: by day 6 after DCVC; for CBIs on the apical membrane of injured RPTC / basal localization of CBI subunits α1, α2, and β1 in injured RPTC: pharmacological AscP or exogenous collagen IV. The method, then: Collagen-binding integrin localization was determined using confocal microscopy of renal proximal tubular cell monolayers stained with monoclonal antibodies to integrin subunits α1, α2, and β1. Renal proximal tubular cell monolayers were washed 3 times with PBS and fixed with 10% buffered formalin (4% formaldehyde) for 20 minutes at room temperature. After 3 washes with PBS, monolayers were permeabilized in PTB buffer (PBS+0.3% Triton X-100+0.1% BSA) for 10 minutes at room temperature. Monolayers were washed 3 times with 0.1% BSA in PBS and incubated with 8% BSA in PBS for 30 minutes at room temperature. BSA (1%) in PBS containing 5 μg/ml of specific integrin antibodies or non-specific IgG was added to renal proximal tubular cell monolayers and incubated overnight a t 4° C. with moderate shaking. Following 3 washes with PTB buffer, monolayers were incubated for 2 hours in the dark at room temperature with 1% BSA in PBS containing a 1:100 dilution of a FITC-conjugated goat anti-mouse IgG. Monolayers were washed 3 times with PTB, and glass coverslips were applied after the addition of 2–3 drops of mounting media. Confocal microscopy was performed using a Zeiss confocal laser scanning microscope (Model 410, Carl Zeiss, Inc., Thornwood, N.Y.). Basal and apical membrane locations were determined visually in the Z-plane using light field microscopy. Two to three photomicrographs per monolayer at the basal and apical membranes were then scanned with an omnichrome laser filtered at 488 nm to detect FITC.

Data set [3] has as its system Na^+/K^+-ATPase activity in renal proximal tubular cells. The experiment in a line: Na^+/K^+-ATPase activity (ouabain-sensitive ATPase). The method, then: as §1
On days 1 and 6 after sublethal S-(1,2-dichlorovinyl)-L-cysteine injury, total ATPase activity was measured using a modification of a previously described procedure (44). Briefly, renal proximal tubular cells cultured in 48-well cell culture clusters were scraped and incubated in dissociation buffer (5 mM HEPES (pH 7.4), 25 mM imidazole, 1% BSA, 0.065% sodium dodecyl sulfate (SDS)) for 10 min. at room temperature and placed on ice. The dissociated renal proximal tubular cells were then diluted 5-fold with additional dissociation buffer minus SDS. Aliquots of dissociated renal proximal tubular cells were combined with fresh ATPase assay buffer (2.54 mM MgCl2, 100 mM NaCl, 10 mM KCl, 5 mM HEPES, 10 U/ml lactate dehydrogenase, 7 U/ml pyruvate kinase, 2.54 mM Na2ATP, 2.54 mM phospho(enol)pyruvate, and 0.5 mM β-NADH). ATPase activity was measured under linear conditions spectrophotometrically as the oxidation of β-NADH to NAD^+ at 37° C. in the absence or presence of ouabain (0.1 mM) at a wavelength of 340 nm. Na^+/K^+-ATPase activity was calculated as total ATPase activity minus ouabain-insensitive ATPase activity.
Confluent monolayers of renal proximal tubular cells (day 6 after seeding) were exposed to 200 μM S-(1,2-dichlorovinyl)-L-cysteine (dissolved in water) for 1.75 hours followed by toxicant removal and addition of fresh culture media. This method produces approximately 50% cell death and loss 24 hours after the exposure. In some experiments, exogenous collagen IV (50 μg/ml), collagen I (50 μg/ml), or function-stimulating antibodies to collagen-binding integrin subunits α2 or β1 (5 μg/ml) was added daily to the culture media of S-(1,2-dichlorovinyl)-L-cysteine-injured renal proximal tubular cells cultured in the absence of pharmacological concentrations of L-ascorbic acid-2-phosphate. Function-stimulating antibodies to collagen-binding integrin α1 are not commercially available at this time. On days 1 and 6 following S-(1,2-dichlorovinyl)-L-cysteine exposure, active Na^+ transport or Na^+/K^+-ATPase activity, and collagen-binding integrin expression and/or localization in the remaining sublethally injured renal proximal tubular cells was determined as described below.
Total ATPase activity was measured as described above. […]

Data set [4] deals with collagen-binding integrin subunits α1, α2, and β1. The experiment in a line: Expression of collagen-binding integrins by flow cytometry. The following applies: for expression of CBI subunits α1, α2, or β1 in sublethally injured RPTC: DCVC-injured RPTC; for expression of CBI subunits α1, α2, or β1 in sublethally injured RPTC / collagen-binding integrin α1, α2, and β1 expression in uninjured RPTC: AscP 500 μM or collagen IV 50 μg/ml. The method, then:
CBI expression was measured by flow cytometry of renal proximal tubular cells immunostained with monoclonal antibodies to integrin subunits α1, α2, and β1. Renal proximal tubular cell monolayers were washed 3 times with ice-cold PBS, gently scraped from culture dishes into cell culture media containing 5% BSA (BSA/media), and transferred to microcentrifuge tubes. Renal proximal tubular cells were dissociated by pipeting, incubated on ice with moderate shaking for 20 minutes, centrifuged, and resuspended in 1% BSA/media containing 2 μg/ml of a specific anti-integrin antibody or non-specific IgG on ice with moderate shaking for 1 hour. After 3 washes with 1% BSA/media, renal proximal tubular cells were incubated for 30 minutes in the dark with a goat-anti mouse FITC-conjugated IgG diluted 1:100 in 1% BSA/media, followed by 3 washes with ice-cold PBS. Membrane expression of collagen-binding integrins was determined immediately by flow cytometry using a FACSCalibur four-color cell sorter/analyzer (Beckton Dickinson, San Jose, Calif.) with a blue argon laser for detection of FITC. Specific binding was calculated as total fluorescence minus that in IgG controls.
Background: Flow cytometry measures light scatter and fluorescence of single cells or particles in a stream.

Setting [5] is: one day after DCVC (200 μM), both 50 μM and 500 μM AscP.

Turning to “collagen IV: Human placenta collagen IV (Sigma); triple helical, containing only α1 and α2 chains”, the “decrease in basal QO2” value in data set [1] (day 1 after DCVC injury, in presence of exogenous protein) is “approximately 50%”. In addition, the “repair of basal QO2” value in data set [1] (50 μg/ml) was “complete repair”; in data set [1] (5, 15, 50 μg/ml) it was “recovered basal QO2”. Also, the “basal QO2 in untreated RPTC” value in data set [1] (uninjured RPTC, days 1 or 6, exogenous protein) is on record as “no effect”. Further, in data set [2], the “CBIs on the apical membrane of injured RPTC” value is “complete disappearance”. Besides, in data set [2] (day 6 after DCVC), the “basal localization of CBI subunits α1, α2, and β1 in injured RPTC” value is given as “return to control levels”. In addition, the “Na^+/K^+-ATPase activity in injured RPTC” value in data set [3] (day 6 after DCVC injury, 50 μg/ml) is listed as “significantly increased”. Also, the “expression of CBI subunits α1, α2, or β1 in sublethally injured RPTC” value in data set [4] was “did not affect”. Further, the “collagen-binding integrin α1, α2, and β1 expression in uninjured RPTC” value in data set [4] is reported as “did not affect”.
With `O=C1O[C@H]([C@@H](O)CO)C(O)=C1OP(=O)(O)O` [L-ascorbic acid-2-phosphate, L-Ascorbic acid-2-phosphate], the QO2 result in data set [1] (day 4 after DCVC, 50 μM or 500 μM AscP) was “remained at day 1 levels”. In data set [1] (day 6 after DCVC, 500 μM AscP), the “QO2 higher than in RPTC grown in 50 μM AscP” value is listed as 49% and the “QO2 relative to controls” value is reported as “equal to that of controls”. In addition, the “basal QO2, untreated RPTC, 50 μM vs 500 μM” value in data set [1] (uninjured RPTC) is recorded as “equivalent at all time points”. Further, in data set [2], the “CBIs on the apical membrane of injured RPTC” value is on record as “complete disappearance”. In addition, the “basal localization of CBI subunits α1, α2, and β1 in injured RPTC” value in data set [2] (day 6 after DCVC) was “return to control levels”. Besides, the “Na^+/K^+-ATPase activity higher than in injured RPTC in physiological AscP” value in data set [3] (day 6 after DCVC, 500 μM AscP) was “approximately 150%”. In addition, in data set [3] (uninjured RPTC), the “Na^+/K^+-ATPase activity, untreated RPTC, 50 μM vs 500 μM” value is given as “equivalent at all time points”. Moreover, in data set [4], the “expression of CBI subunits α1, α2, or β1 in sublethally injured RPTC” value is recorded as “did not affect”; the “collagen-binding integrin α1, α2, and β1 expression in uninjured RPTC” value is reported as “did not affect”.
As for `N[C@@H](CSC(Cl)=CCl)C(=O)O` [S-(1,2-dichlorovinyl)-L-cysteine], the “decrease in QO2” value in data set [1] (setting [5]) is listed as “approximately 50%”. In data set [2] (day 1 after DCVC injury), the “apical membrane distribution of CBI subunits α1, α2, and β1” value is reported as “partially redistributed to the apical membrane”. Besides, in data set [2] (day 1 following DCVC), the “CBI α1, α2, and β1 staining at the basal membrane” value is “decreased compared to controls”. In data set [2] (day 6 after DCVC injury), the “apical membrane distribution of CBIs” value is “continued to exhibit CBI is distributed to the apical membrane”. Moreover, the “basal localization of CBI subunits α1, α2, and β1” value in data set [2] (day 6 after DCVC, absence of pharmacological AscP or collagen IV) was “still decreased compared to sub-confluent controls”. In addition, the “decrease in Na^+/K^+-ATPase activity” value in data set [3] (setting [5]) is listed as approximately 65%. Also, the “expression of CBI subunits α1, α2, and β1 compared to controls” value in data set [4] (day 1 after DCVC) is “unchanged”. In data set [4] (day 6 after DCVC), the “expression of CBI subunits α1 and β1 compared to controls” value is “unchanged”.
